{"source": "patent US20090074785A1", "about": "“Compositions and methods for treatment of colorectal cancer” (priority 2007, published 2009)", "key": {"[1]": {"tested_on": "IBABP-L", "test": "Regulation of expression of IBABP-L in Caco-2 cells, quantitative RT-PCR", "type": "cell-based, human", "conditions": "24 h", "description": "(§1) The expression of IBABP-L and IBABP was measured by quantitative RT-PCR. The mRNA copy number of each variant is normalized to the expression the housekeeping gene ARPP0. Values in the figure represent the average of three experiments with each replicate performed in duplicate.\n(§2) To determine the relative expression levels of IBABP-L and IBABP, a two-step quantitative RT-PCR procedure was used. In the first step, complementary DNA (cDNA) was synthesized from total RNA. […] In the second step, quantitative PCR (QPCR) was carried out on a Mx 3000P Real-Time PCR System (Stratagene, La Jolla, Calif.) using a solution containing diluted cDNA (1:20; 2.0 μl), 1×SYBR Green PCR Master Mix (Applied Biosystems, Foster City, Calif.), and primers for IBABP-L, IBABP, or ARPP0 (0.25 μM). […]\n(§3) Regulation of expression of the IBABP variants in Caco-2 cells. […] Cells were harvested, cellular RNA was isolated using the RNeasy Mini Kit (Qiagen) according to manufacturer instruction, and expression of IBABP variants was determined by QPCR as described above.\n(§4) Bile acids differentially regulate the variants of IBABP. […] Caco-2 cells were treated with either chenodeoxycholic acid (CDCA), deoxycholic acid (DCA), or 9cRA, and the relative expression of transcripts encoding IBABP-L and IBABP was measured by quantitative RT-PCR (FIG. 10)."}, "[2]": {"tested_on": "IBABP", "test": "Regulation of expression of IBABP in Caco-2 cells, quantitative RT-PCR", "type": "cell-based, human", "conditions": "100 nM, 24 h", "description": "as §1, §2, §3, §4"}, "[3]": {"biological_target": "T1, BAR (FXR, NR1H4) (Homo sapiens, UniProt Q96RI1)", "T1 sequence (Q96RI1 1-486)": "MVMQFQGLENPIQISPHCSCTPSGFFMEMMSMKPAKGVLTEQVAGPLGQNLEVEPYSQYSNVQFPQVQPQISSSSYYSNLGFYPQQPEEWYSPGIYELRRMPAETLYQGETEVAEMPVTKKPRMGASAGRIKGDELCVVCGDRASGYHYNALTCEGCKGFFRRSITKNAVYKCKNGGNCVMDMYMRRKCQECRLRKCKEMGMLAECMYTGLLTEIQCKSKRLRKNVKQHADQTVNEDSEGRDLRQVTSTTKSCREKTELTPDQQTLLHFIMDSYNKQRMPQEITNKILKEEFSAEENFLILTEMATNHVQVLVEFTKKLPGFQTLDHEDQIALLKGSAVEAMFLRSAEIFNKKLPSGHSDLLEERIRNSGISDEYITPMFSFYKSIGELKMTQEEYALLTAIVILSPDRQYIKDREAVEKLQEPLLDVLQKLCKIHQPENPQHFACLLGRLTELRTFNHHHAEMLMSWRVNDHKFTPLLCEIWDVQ", "conditions": "gene-selective BAR modulator; cited from earlier work"}, "[4]": {"tested_on": "IBABP-L promoter", "test": "IBABP-L promoter luciferase reporter in HCT 116 cells", "type": "cell-based, human", "conditions": "25 ng/ml for 5 hr, HCT116 cells", "description": "To verify that NF-κB binds the response element and drives the expression of IBABP-L, a number of studies were performed with deletions and mutations of the promoter linked to a reporter gene (PGL3-Basic Luciferase), as shown in FIG. 18. These studies were performed in HCT 116 colon cancer cells, which have elevated expression of IBABP-L. The region containing the putative NF-κB binding motif (−1563/+78) was amplified from human genomic DNA by PCR. Deletion constructs of this promoter were made through PCR or restriction enzyme digestion. The G C mutation was made through site-directed mutagenesis. The wild type and modified promoters were inserted into PGL3 vector containing firefly Luciferase (Luc) reporter (Promega). Reporter vectors were constructed to either delete the entire putative NF-κB binding motif, or mutate the most conserved “G” to “C” within this motif. The wild type promoter and modified reporters were introduced into HCT 116 cells, and luciferase activity was analyzed at 24 hr.\nAs shown in FIGS. 19A-C, a functional analysis of the IBABP-L promoter was performed. […] The luciferase activity was measured in 24 h and normalized to the Renilla signal in the absence of the IBABP-L promoter. […] Luciferase activity was measured in 24 hr and normalized. pRL-CMV was included in every transfection. […]"}}}
{"compound": "CC1=C(/C=C/C(C)=C\\C=C\\C(C)=C\\C(=O)O)C(C)(C)CCC1", "note": "[9cRA, 9-cis-retinoic acid]", "values": [{"measurement": "effect on expression of IBABP-L", "setting": "[1]; 100 nM", "value": "without effect"}, {"measurement": "effect on expression of IBABP", "setting": "[2]", "value": "up-regulated"}]}
{"compound": "CCCCCCOc1c(\\C(C)=C/C=C/C(C)=C/C(=O)O)cc(C(C)C)cc1C(C)C", "note": "[AGN34]", "values": [{"measurement": "activity on CYP7A1", "setting": "[3]", "value": "agonist"}, {"measurement": "activity on IBABP", "setting": "[3]", "value": "antagonist"}, {"measurement": "activity on SHP", "setting": "[3]", "value": "neutral"}]}
{"compound": "C[C@H](CCC(=O)O)[C@H]1CC[C@H]2[C@@H]3[C@H](O)C[C@@H]4C[C@H](O)CC[C@]4(C)[C@H]3CC[C@]12C", "note": "[CDCA, chenodeoxycholic acid]", "values": [{"measurement": "effect on expression of IBABP-L", "setting": "[1]; 100 μM, normalized to ARPP0", "value": "without effect"}]}
{"compound": "tumor necrosis factor α [TNFα]", "values": [{"measurement": "transcription activity of the wild type IBABP-L promoter", "setting": "[4]", "value": "increased"}, {"measurement": "transcription activity of the mutated IBABP-L promoter", "setting": "[4]; G to C mutation in NF-κB motif", "value": "not the mutated promoter"}]}
